Measured values: US20180200257A1, “METHODS FOR THE TREATMENT OF INFLAMMATORY DISORDERS” (Galapagos NV, priority 2015, published 2018)

System: subjects with moderately to severely active RA who have an inadequate response to methotrexate (MTX)
Experiment: Study 1 (add-on to MTX) - ACR responses (ACR20/50/70)
Assay type: in vivo, human
Source text: The terms “ACR20”, “ACR50” and “ACR70” as used herein are scores which indicate how much a patient's rheumatoid arthritis has improved according to criteria set out by the American College of Rheumatology (ACR). The ACR score represents a percentage. An ACR20 score means that a person's RA has improved by 20%, an ACR50 score means it has improved by 50%, and an ACR70 score means it has improved by 70%. Specifically, to qualify for an ACR20 score, a person with RA must have at least 20% fewer tender joints and at least 20% fewer swollen joints. In addition the patient must show a 20% improvement in at least three of the following five areas: the person's overall (global) assessment of his or her own RA, the physician's global assessment of the person's RA, the person's assessment of his or her own pain, the person's assessment of his or her own physical functioning, and the results of an erythrocyte sedimentation rate or C-reactive protein (CRP) blood test (both of which test for inflammation). ACR50 and ACR70 scores use the same criteria but require 50% and 70% improvement, respectively, (Felson et al., 1993). In the data presented herein the CRP blood test is used.
Double-blind, placebo-controlled add on study in subjects with moderately to severely active RA who have an inadequate response to methotrexate (MTX) (oral or parenteral).
595 subjects randomized to one of 6 dose regimens of Compound 1 (dosed as [Compound 1:HCl:3H2O]) (3 dose levels administered either once or twice daily) or placebo on top of each subject's stable dose of MTX.
Compound 1 (dosed as [Compound 1:HCl:3H2O]) is dosed for twelve weeks once daily (q.d.) (50 mg, 100 mg or 200 mg) or twice daily (b.i.d.) (25 mg, 50 mg or 100 mg); or placebo.
At Week 12, the subjects on placebo who have not achieved 20% improvement in swollen joint count (SJC66) and tender joint count (TJC68) are re-randomized automatically to receive Compound 1 (dosed as a [Compound 1:HCl:3H2O]) either at 100 mg q.d. or 50 mg b.i.d. doses in a blinded fashion; subjects on 50 mg q.d. who have not achieved 20% improvement in SJC66 and TJC68 will be assigned to 100 mg q.d. and subjects on 25 mg b.i.d. that have not achieved a 20% improvement in SJC66 and TJC68 will be assigned to 50 mg b.i.d. Subjects who switch treatment at week 12 are handled as if they discontinued at week 12 for the purpose of statistical analysis, whereas subjects in the other groups will maintain their randomized treatment until Week 24.
The American College of Rheumatology (ACR) composite score, which evaluates clinical improvement relative to an initial assessment, is a commonly accepted efficacy end point for clinical trials in patients with rheumatoid arthritis. The ACR score correspond to a percentage improvement in pre-set parameters, and therefore measures the evolution of the disease in a patient. For example, ACR20 denotes at least 20% improvement in tender and swollen joint counts and in three of the following end points: global assessment by the patient, global assessment by the doctor, C reactive protein (CRP), patient's pain Visual Analogue Scale and Health Assessment Questionnaire Score. The number of swollen joints, ESR and CRP correlate with radiographic progression of joint damage, whereas tender joint counts, as well as global assessments by doctors and patients, and patients' reports of pain, are sensitive to change in clinical outcomes. Physical function, as assessed by the Health Assessment Questionnaire Score, is a potent predictor of the risk of disability in rheumatoid arthritis (Felson and American College of Rheumatology Committee to Reevaluate Improvement Criteria, 2007; Felson et al., 1993).
In particular, the list of parameters used to assess ACR score can be found in the Table XCVI below and the results of the ACR responses at week 12 via either NRI or LOCF are shown in the tables below. The Hommel-corrected p-value for the pairwise comparisons of each group with placebo is shown. […]

[1] = 100 mg q.d., week 12, 12 weeks results
[2] = 100 mg q.d., week 12, 24 weeks results
[3] = 100 mg q.d., week 16, 24 weeks results
[4] = 100 mg q.d., week 20, 24 weeks results
[5] = 100 mg q.d., week 24, 24 weeks results
[6] = 100 mg q.d., at week 1, 12 weeks results
[7] = 100 mg q.d., at week 1, 24 weeks results
[8] = 100 mg q.d., week 8, 12 weeks results
[9] = 200 mg q.d., week 2, 12 weeks results
[10] = 200 mg q.d., week 2, 24 weeks results
[11] = 200 mg q.d., week 4, 12 weeks results
[12] = 200 mg q.d., week 4, 24 weeks results
[13] = 200 mg q.d., week 8, 24 weeks results
[14] = 200 mg q.d., week 12, 12 weeks results
[15] = 200 mg q.d., week 12, 24 weeks results
[16] = 200 mg q.d., week 16, 24 weeks results
[17] = 200 mg q.d., week 20, 24 weeks results
[18] = 200 mg q.d., week 24, 24 weeks results
[19] = 200 mg q.d., at week 1, 12 weeks results
[20] = 200 mg q.d., at week 1, 24 weeks results
[21] = 200 mg q.d., week 8, 12 weeks results

O=C(Nc1nc2cccc(-c3ccc(CN4CCS(=O)(=O)CC4)cc3)n2n1)C1CC1 [Compound 1, cyclopropanecarboxylic acid {5-[4-(1,1-dioxo-thiomorpholin-4-ylmethyl)-phenyl]-[1,2,4]triazolo[1,5-a]pyridin-2-yl}-amide]
ACR70 (LOCF) [1]: 22.4%
ACR70 (NRI) [1]: 20.0%
ACR20 (LOCF) [2]: 67.1%
ACR20 (NRI) [2]: 62.4%
ACR50 (LOCF) [2]: 41.2%
ACR50 (NRI) [2]: 38.8%
ACR70 (LOCF) [2]: 22.4%
ACR70 (NRI) [2]: 20.0%
ACR20 (LOCF) [3]: 69.4%
ACR20 (NRI) [3]: 64.7%
ACR50 (LOCF) [3]: 55.3%
ACR70 (LOCF) [3]: 27.1%
ACR20 (LOCF) [4]: 76.5%
ACR20 (NRI) [4]: 69.4%
ACR50 (LOCF) [4]: 50.6%
ACR70 (LOCF) [4]: 32.9%
ACR20 (LOCF) [5]: 72.9%
ACR20 (NRI) [5]: 60.0%
ACR50 (LOCF) [5]: 54.1%
ACR70 (LOCF) [5]: 37.6%
ACR20 (LOCF) [6]: 32.9%
ACR20 (NRI) [6]: 34.1%
ACR50 (LOCF) [6]: 5.9%
ACR50 (NRI) [6]: 5.9%
ACR70 (LOCF) [6]: 0.0%
ACR70 (NRI) [6]: 0.0%
ACR20 (LOCF) [7]: 34.1%
ACR20 (NRI) [7]: 34.1%
ACR50 (LOCF) [7]: 5.9%
ACR50 (NRI) [7]: 5.9%
ACR70 (LOCF) [7]: 0.0%
ACR70 (NRI) [7]: 0.00%
ACR20 (LOCF) [8]: 63.5%
ACR20 (NRI) [8]: 63.5%
ACR50 (LOCF) [8]: 35.3%
ACR50 (NRI) [8]: 34.1%
ACR70 (LOCF) [8]: 23.5%
ACR70 (NRI) [8]: 22.4%
ACR20 (LOCF) [9]: 48.8%
ACR20 (NRI) [9]: 48.8%
ACR50 (LOCF) [9]: 11.6%
ACR50 (NRI) [9]: 11.6%
ACR70 (LOCF) [9]: 5.8%
ACR70 (NRI) [9]: 5.8%
ACR20 (LOCF) [10]: 48.8%
ACR20 (NRI) [10]: 48.8%
ACR50 (LOCF) [10]: 11.6%
ACR50 (NRI) [10]: 11.6%
ACR70 (LOCF) [10]: 5.8%
ACR70 (NRI) [10]: 5.8%
ACR20 (LOCF) [11]: 55.8%
ACR20 (NRI) [11]: 55.8%
ACR50 (LOCF) [11]: 16.3%
ACR50 (NRI) [11]: 17.4%
ACR70 (LOCF) [11]: 4.7%
ACR70 (NRI) [11]: 4.7%
ACR20 (LOCF) [12]: 55.8%
ACR20 (NRI) [12]: 55.8%
ACR50 (LOCF) [12]: 17.4%
ACR50 (NRI) [12]: 17.4%
ACR70 (LOCF) [12]: 4.7%
ACR70 (NRI) [12]: 4.7%
ACR20 (LOCF) [13]: 69.8%
ACR20 (NRI) [13]: 69.8%
ACR50 (LOCF) [13]: 34.9%
ACR50 (NRI) [13]: 34.9%
ACR70 (LOCF) [13]: 18.6%
ACR70 (NRI) [13]: 18.6%
ACR20 (LOCF) [14]: 70.9%
ACR20 (NRI) [14]: 68.6%
ACR50 (LOCF) [14]: 44.2%
ACR50 (NRI) [14]: 43.0%
ACR70 (LOCF) [14]: 24.4%
ACR70 (NRI) [14]: 24.4%
ACR20 (LOCF) [15]: 70.9%
ACR20 (NRI) [15]: 69.8%
ACR50 (LOCF) [15]: 44.2%
ACR50 (NRI) [15]: 43.0%
ACR70 (LOCF) [15]: 24.4%
ACR70 (NRI) [15]: 24.4%
ACR20 (LOCF) [16]: 74.4%
ACR20 (NRI) [16]: 73.3%
ACR50 (LOCF) [16]: 50.0%
ACR70 (LOCF) [16]: 26.7%
ACR20 (LOCF) [17]: 76.7%
ACR20 (NRI) [17]: 73.3%
ACR50 (LOCF) [17]: 54.7%
ACR70 (LOCF) [17]: 24.4%
ACR20 (LOCF) [18]: 77.9%
ACR20 (NRI) [18]: 73.3%
ACR50 (LOCF) [18]: 54.7%
ACR70 (LOCF) [18]: 31.4%
ACR20 (LOCF) [19]: 25.6%
ACR20 (NRI) [19]: 27.9%
ACR50 (LOCF) [19]: 4.7%
ACR50 (NRI) [19]: 4.7%
ACR70 (LOCF) [19]: 1.2%
ACR70 (NRI) [19]: 1.2%
ACR20 (LOCF) [20]: 27.9%
ACR20 (NRI) [20]: 27.9%
ACR50 (LOCF) [20]: 4.7%
ACR50 (NRI) [20]: 4.7%
ACR70 (LOCF) [20]: 1.2%
ACR70 (NRI) [20]: 1.2%
ACR20 (LOCF) [21]: 68.6%
ACR20 (NRI) [21]: 68.6%
ACR50 (LOCF) [21]: 33.7%
ACR50 (NRI) [21]: 33.7%
ACR70 (LOCF) [21]: 18.6%
